“Also recorded” adds a separate entry of the source.
Columns and labels:
[1] = tested on: various cataract-causing crystallin mutants; experiment: Aggresome / intracellular aggregate formation of crystallin mutants in transfected cells (confocal microscopy); type: cell-based; conditions: 0-40 μM sterols in 2% DMSO, 2 h treatment then 12 h culture; lanosterol effect dose-dependent
Experimental: The effect of lanosterol or cholesterol on the aggresome formation of various crystallins was studied by transfecting the cells using plasmids containing various crystallin genes. The cells were cultivated for 24 h to enable efficient protein expression and aggresome formation. Then the cells were treated with 0-40 μM sterols in 2% DMSO. The cells treated with 2% DMSO were used as the control. After treatment for 2 h, the cells were moved to fresh DMEM medium containing 10% fetal bovine serum and further cultivated for 12 h. Then the cells were used for microscopy analysis.
The microscopy samples were prepared by washing the slips by phosphate buffered saline (PBS) three times. The cells were fixed with 4% paraformaldehyde for 40 min followed by three times washing with PBS. The cells were permeabilized with 0.1% Triton X-100 (Sigma) in PBS for 10 min and blocked with 5% normal goat serum in PBS for 1 h at 37° C. Immunostaining was carried out by adding mouse anti-Flag antibody (1:500) or anti-p62 antibody (1:200) in PBS buffer containing 5% normal goat serum and cultivated for 1 h at 37° C. Then the slips were washed three times with PBS, and further incubated with Alexa 649-conjugated goat anti-mouse IgG (1:250) for 1 h at ambient temperature. The nuclei were counterstained with Hoechst 33342. The mounted cells were analyzed using a Carl Zeiss LSM 710 confocal microscope.

[2] = tested on: aA-crystallin-Y118D and aB-crystallin-R120G; experiment: Dissolving of accumulated crystal protein in cells carrying two crystallin mutant plasmids; type: cell-based; conditions: 10 uM, compared with 1% DMSO solution
Experimental: FIG. 13. Two mutant crystal proteins were introduced into cells. The accumulated crystal protein were treated by adding different agents.
Cyclopentanoperhy drophenanthrene compounds of the present invention refers to a compound containing cyclopentanoperhy drophenanthrene skeleton structure, including its derivatives. After the two crystal protein mutant plasmid aA-crystallin-Y118D and aB-crystallin-R120G were introduced into cells, we investigated the lanosterol and its derivatives as well as cholesterol (Cholesterol) for their effects on intracellular accumulation of crystal protein. Not all cyclopentanoperhy drophenanthrene compound have the same effect.

[3] = Lanosterol eye drop formulation evaluation (stability, irritation, intraocular bioavailability); conditions: dissolved in pure aqueous solution
From the text: The optimal formulation was selected based on the stability of the active ingredient, irritation, and intraocular bioavailability of the eye drops.

[4] = biological target: T1, αB-crystallin R120G mutant (Homo sapiens, UniProt P02511, R120G); experiment: Negative-stain EM of aggregates treated with sterol in liposome; type: biochemical; conditions: negatively stained EM
T1 construct: made in house
T1 sequence (P02511 1-175 R120G): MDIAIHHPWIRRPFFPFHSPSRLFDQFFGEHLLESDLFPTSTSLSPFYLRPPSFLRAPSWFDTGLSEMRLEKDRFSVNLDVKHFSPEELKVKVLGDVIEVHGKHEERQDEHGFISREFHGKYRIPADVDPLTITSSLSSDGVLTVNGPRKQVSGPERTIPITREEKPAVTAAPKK
Experimental: Representative negatively stained EM pictures of the aggregates of αB-crystallin R120G mutant treated by liposome, lanosterol in liposome and cholesterol in liposome, respectively. The EM samples were stained by 1.25% uranyl acetate.
Quantitative analysis was performed by calculating the number of particles with length over 50 nm from six randomly picked viewing field. Each viewing field contained 30-50 particles.
The aggregates of the WT and mutated αA- and αB-crystallin proteins were obtained by heating the proteins solutions containing 1 M guanidine chloride (ultrapure, Sigma) with a concentration of 5 mg/ml at 60° C. for 48 h. The aggregates of the WT and mutated β- and γ-crystallins were prepared by heating the protein solutions at pH 3 and 37° C. for 48 h. The formation of aggregates was confirmed by turbidity (absorbance at 400 nm) and transmission electron microscope (EM) measurements. The preformed aggregates were resuspended in 20 mM PBS with a final concentration of 0.1 mg/ml (approximately 5 μM). The resuspended aggregates were treated by 50 μM lanosterol or cholesterol in liposomes formed by 50 μM DPPS at 37° C. […] The soluble proteins were determined by centrifuge the protein solutions to separate the supernatant and precipitation fractions. Then the protein concentration in the supernatant was determined by the Bradford method. […]

[5] = tested on: aggregates of various WT and mutated crystallins; experiment: In vitro protein assay: dissociation of preformed crystallin aggregates (turbidity, soluble protein, EM); type: biochemical; conditions: 37° C.; for dissociation of aggregates of various WT and mutated crystallins: in vitro protein assay, 50 μM sterol in 50 μM DPPS liposome
Experimental: Evaluation of the effect of lanosterol on the dissolution of crystallin aggregates by turbidity. Crystallin aggregates were formed by incubating 5mgml21 protein solution at 60° C. for 2 h (α-crystallins) or 37° C. for 48 h (β- and γ-crystallins) in the presence of 1M guanidine chloride. The preformed aggregates were re-suspended in PBS at a final protein concentration of 0.2 mg/ml and were treated with 500 μM sterols in 500 μM DPPC liposome and incubated at 37° C. for 24 h. Aggregates treated with 500 μM DPPC liposome only were used as the controls.
The α-crystallin aggregates were formed by incubating 5 mg/ml protein solutions at 60° C. for 48 h in the presence of 1 M guanidine chloride. The β- and γ-crystallin aggregates were prepared by incubating the protein solutions at 37° C. and pH 3 for 48 h. The preformed aggregates were re-suspended in PBS with a final protein concentration of 0.1 mg/ml. The re-suspended aggregates were treated by 50 μM sterols in 50 μM DPPS liposome and incubated at 37° C. for 144 h. The aggregates treated by 50 μM DPPS liposome were used as the controls. The supernatant and precipitation fractions were separated by centrifugation. The protein concentrations in the supernatant fraction were determined by absorbance at 280 nm and the percentages of the soluble proteins were calculated from three independent repetitions.
The recombinant his-tagged WT and mutated β- and γ-crystallin proteins were overexpressed in E. coli Rosetta and purified by Ni-NTA affinity column followed by gel filtration chromatography using the same protocol as those described elsewhere 13,14,16,18. The overexpression and purification of the non-tagged αA- and αB-crystallins were performed as described previously 19. The purity of the proteins were estimated to be above 95% as evaluated by one homogeneous band on 12.5% SDS-PAGE, 10% native-PAGE and a single peak in the size-exclusion chromatographyprofile. The protein concentration was determined according to the Bradford method by using BSA as the standard 20. All protein samples were prepared in 20 mM PBS buffer containing 150 mM NaCl, 1 mM EDTA and 1 mM DTT.
The aggregates of the WT and mutated αA- and αB-crystallin proteins were obtained by heating the proteins solutions containing 1 M guanidine chloride (ultrapure, Sigma) with a concentration of 5 mg/ml at 60° C. for 48 h. The aggregates of the WT and mutated β- and γ-crystallins were prepared by heating the protein solutions at pH 3 and 37° C. for 48 h. The formation of aggregates was confirmed by turbidity (absorbance at 400 nm) and transmission electron microscope (EM) measurements. The preformed aggregates were resuspended in 20 mM PBS with a final concentration of 0.1 mg/ml (approximately 5 μM). The resuspended aggregates were treated by 50 μM lanosterol or cholesterol in liposomes formed by 50 μM DPPS at 37° C. After 72 h treatment, the protein solutions were used for negative-stained EM observations. After 144 h incubation, the protein solutions were used for turbidity measurements and determinations of protein concentrations in the soluble fractions. The soluble proteins were determined by centrifuge the protein solutions to separate the supernatant and precipitation fractions. Then the protein concentration in the supernatant was determined by the Bradford method. The EM samples were prepared by depositing the protein solutions onto a freshly glow-discharged carbon coated copper grid. […]

With `CC(C)=CCC[C@@H](C)[C@H]1CC[C@@]2(C)C3=C(CC[C@]12C)[C@@]1(C)CC[C@H](O)C(C)(C)[C@@H]1CC3` [Lanosterol] the “intracellular aggregation of various cataract-causing crystallin mutants” value [1] was “significantly reduced intracellular aggregation”, the “dissolving of accumulated crystal protein” value [2] was “significantly dissolve accumulated crystals protein; also recorded: significant dissolving of the accumulated crystal protein” and the “stability and solubility of lanosterol” value [3] was “poor stability and low solubility”. The “dissociation of aggregates formed by αB-crystallin R120G mutant (number of particles with length over 50 nm)” value [4] was “dissociates the aggregates”, the “dissolution of crystallin aggregates by turbidity” value ([5]; 500 μM sterols in 500 μM DPPC liposome, 24 h, 0.2 mg/ml protein) was “could dissociate the aggregates” and the “dissociation of aggregates of various WT and mutated crystallins” value [5] was “can dissociate the preformed amyloid-like fibrils/aggregates”. The “dissociation of aggregates of various WT and mutated crystallins” value ([5]; listed as lanosterol) was “could dissociate the aggregates”.
